Here are results for 1 cell line from the supplement of paper PMC10307832.

What all share (assay): relative viability (nuclei count vs DMSO), 5 days (fraction); higher = more cells survive
Compound in the assay “Etoposide + Navitoclax”: COc1cc([C@@H]2c3cc4c(cc3[C@@H](O[C@@H]3O[C@@H]5CO[C@@H](C)O[C@H]5[C@H](O)[C@H]3O)[C@H]3COC(=O)[C@H]23)OCO4)cc(OC)c1O [Etoposide] + CC1(C)CCC(c2ccc(Cl)cc2)=C(CN2CCN(c3ccc(C(=O)NS(=O)(=O)c4ccc(N[C@H](CCN5CCOCC5)CSc5ccccc5)c(S(=O)(=O)C(F)(F)F)c4)cc3)CC2)C1 [Navitoclax] (partner 0.5 µM)
In outline:
(§1)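 Values are medians from duplicate plates. Each reflects relative viability, defined as the nuclei count of treated wells over that of vehicle wells. Lung cancer cell lines in 1536-well plates were pin-tool dosed one day after seeding with one drug alone or with a fixed anchor-drug dose plus five library-drug doses (not always all listed) in √10 steps, then fixed, stained and imaged at 4× after 5 days.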

Compound in the assay “Etoposide + Pemetrexed”: COc1cc([C@@H]2c3cc4c(cc3[C@@H](O[C@@H]3O[C@@H]5CO[C@@H](C)O[C@H]5[C@H](O)[C@H]3O)[C@H]3COC(=O)[C@H]23)OCO4)cc(OC)c1O [Etoposide] + Nc1nc2[nH]cc(CCc3ccc(C(=O)N[C@@H](CCC(=O)O)C(=O)O)cc3)c2c(=O)[nH]1 [Pemetrexed] (partner 0.2 µM)
In outline:
as §1

Compound in the assay “Etoposide + Pictilisib”: COc1cc([C@@H]2c3cc4c(cc3[C@@H](O[C@@H]3O[C@@H]5CO[C@@H](C)O[C@H]5[C@H](O)[C@H]3O)[C@H]3COC(=O)[C@H]23)OCO4)cc(OC)c1O [Etoposide] + CS(=O)(=O)N1CCN(Cc2cc3nc(-c4cccc5[nH]ncc45)nc(N4CCOCC4)c3s2)CC1 [Pictilisib] (partner 1 µM)
In outline:
as §1

Compound in the assay “Bleomycin + Lapatinib”: CC1=C(N=C(N=C1N)[C@H](CC(=O)N)NC[C@@H](C(=O)N)N)C(=O)N[C@@H]([C@H](C2=CN=CN2)OC3C(C(C(C(O3)CO)O)O)OC4C(C(C(C(O4)CO)O)OC(=O)N)O)C(=O)N[C@H](C)[C@H]([C@H](C)C(=O)N[C@@H]([C@@H](C)O)C(=O)NCCC5=NC(=CS5)C6=NC(=CS6)C(=O)NCCC[S+](C)C)O [Bleomycin] + CS(=O)(=O)CCNCc1ccc(-c2ccc3ncnc(Nc4ccc(OCc5cccc(F)c5)c(Cl)c4)c3c2)o1 [Lapatinib] (partner 2 µM)
The conditions noted are these: main component drawn. The method in brief: as §1

Consider UMC-11, for which the relative viability with Etoposide + Navitoclax (first compound 0.01 µM) was determined as 0.344; with Etoposide + Navitoclax (first compound 0.03162 µM) it was 0.307; with Etoposide + Navitoclax (first compound 0.3162 µM), 0.193; with Etoposide + Navitoclax (first compound 1 µM), 0.155; with Etoposide + Pemetrexed (first compound 0.01 µM) it was 0.809; in the assay with Etoposide + Pemetrexed (first compound 0.03162 µM), 0.789. Besides, the relative viability worked out at 0.768 with Etoposide + Pemetrexed (first compound 0.1 µM); 0.53 in the assay with Etoposide + Pemetrexed (first compound 0.3162 µM); 0.313 in the assay with Etoposide + Pemetrexed (first compound 1 µM); 0.837 with Etoposide + Pictilisib (first compound 0.01 µM); 0.938 with Etoposide + Pictilisib (first compound 0.03162 µM); 0.339 with Etoposide + Pictilisib (first compound 0.3162 µM). Besides, the relative viability in the assay with Etoposide + Pictilisib (first compound 1 µM) is 0.194; in the assay with Bleomycin + Lapatinib (first compound 0.01 µM), 0.879; with Bleomycin + Lapatinib (first compound 0.03162 µM), 0.819; with Bleomycin + Lapatinib (first compound 0.1 µM), 0.971; in the assay with Bleomycin + Lapatinib (first compound 0.3162 µM), 0.737; with Bleomycin + Lapatinib (first compound 1 µM), 0.503.
